Patent publication US20060069132A1, “Azolecarboxamide herbicides” (priority 2004, published 2006)

Tests used:
[1] = test system: morningglory; assay: Test A pre-/postemergence herbicide test; format: in vivo, Ipomoea spp.
How it was run: (§1)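 Sandy loam soil given preemergence directed spray; plants at 2 to 10 cm, one- to two-leaf stage, sprayed to runoff postemergence, compounds in non-phytotoxic solvent with surfactant. Injury rated visually versus untreated controls after about ten greenhouse days, 0 (no effect) to 100 (complete control); dash means not tested.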

[2] = test system: velvetleaf; assay: Test A pre-/postemergence herbicide test; format: in vivo, Abutilon theophrasti
How it was run: as §1

[3] = test system: bermudagrass; assay: Test C pre-/postemergence herbicide test; format: in vivo, Cynodon dactylon
How it was run: (§2)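 Preemergence: seeds planted and treated with compound in non-phytotoxic solvent with surfactant; postemergence: plants at 2 to 18 cm (1- to 4-leaf stage) sprayed likewise. Kept in greenhouse 12 to 14 days, then visually rated against controls, 0 (no effect) to 100 (complete control).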

[4] = test system: Surinam grass; assay: Test C pre-/postemergence herbicide test; format: in vivo, Urochloa decumbens; settings: preemergence
How it was run: as §2

[5] = test system: cocklebur; assay: Test C pre-/postemergence herbicide test; format: in vivo, Xanthium strumarium; settings: preemergence
How it was run: as §2

[6] = test system: goosegrass; assay: Test C pre-/postemergence herbicide test; format: in vivo, Eleusine indica; settings: preemergence
How it was run: as §2

[7] = test system: johnsongrass; assay: Test C pre-/postemergence herbicide test; format: in vivo, Sorghum halepense; settings: preemergence
How it was run: as §2

[8] = test system: pigweed; assay: Test C pre-/postemergence herbicide test; format: in vivo, Amaranthus retroflexus; settings: preemergence
How it was run: as §2

[9] = test system: soybean; assay: Test C pre-/postemergence herbicide test; format: in vivo, Glycine max; settings: preemergence
How it was run: as §2

[10] = test system: smallflower umbrella sedge; assay: Test C flooded paddy test; format: in vivo, Cyperus difformis
[11] = test system: ducksalad; assay: Test C flooded paddy test; format: in vivo, Heteranthera limosa
[12] = Postemergence, 500 g ai/ha, 0 to 100 scale, 0 no effect, 100 complete control
[13] = Postemergence, 2000 g ai/ha, 0 to 100 scale, 0 no effect, 100 complete control
[14] = Preemergence, 2000 g ai/ha, visual rating, 0 to 100 scale (0 no effect, 100 complete control)
[15] = preemergence, 500 g ai/ha, visual injury, 0 to 100 scale (0 no effect, 100 complete control)
[16] = 125 g ai/ha, scale 0 (no effect) to 100 (complete control), visual, 12 to 14 days
[17] = 125 g ai/ha, scale 0 to 100 (0 no effect, 100 complete control)
[18] = 250 g ai/ha, scale of 0 to 100, 0 is no effect, 100 is complete control
[19] = 500 g ai/ha, visual rating after 12 to 14 days, scale 0 to 100 (0 no effect, 100 complete control)

SMILES: CCNC(=O)c1ccc(F)c(NC(=O)c2cc(C3(C)CC3)nn2CC)c1 [Compound 300]
- Morningglory plant response rating [1, 12]: 80
- Plant response rating, Morningglory [1, 13]: 95
- Morningglory plant response rating [1, 14]: 100
- Morningglory plant response rating [1, 15]: 90
- Velvetleaf plant response rating [2, 12]: 60
- Plant response rating, Velvetleaf [2, 13]: 80
- Velvetleaf plant response rating [2, 14]: 100
- Velvetleaf plant response rating [2, 15]: 85
- Plant response rating, Bermudagrass ([3]; 31 g ai/ha, scale 0 to 100, 0 no effect, 100 complete control, last section of Table C (species set of preemergence test)): 80
- Plant response rating, Bermudagrass ([3]; 62 g ai/ha, preemergence, scale 0 to 100, 0 no effect, 100 complete control): 95
- Plant response rating, Bermudagrass ([3]; 125 g ai/ha, scale 0 (no effect) to 100 (complete control), visual, 12 to 14 days, preemergence): 100
- Plant response rating, Bermudagrass ([3]; 250 g ai/ha, scale 0-100, preemergence): 100
- Plant response rating, Surinam Grass ([4]; 62 g ai/ha, scale 0 to 100): 30
- Plant response rating, Surinam Grass ([4]; 250 g ai/ha, scale 0-100): 100
- Plant response rating, Cocklebur ([5]; 62 g ai/ha, scale 0 to 100): 5
- Plant response rating, Cocklebur [5, 16]: 5
- Plant response rating, Cocklebur ([5]; 250 g ai/ha, scale 0-100): 5
- Plant response rating, Goosegrass ([6]; 62 g ai/ha, scale 0 to 100): 85
- Plant response rating, Goosegrass [6, 16]: 100
- Plant response rating, Goosegrass ([6]; 250 g ai/ha, scale 0-100): 100
- Plant response rating, Johnsongrass ([7]; 62 g ai/ha, scale 0 to 100): 60
- Plant response rating, Johnsongrass [7, 16]: 85
- Plant response rating, Johnsongrass ([7]; 250 g ai/ha, scale 0-100): 95
- Plant response rating, Pigweed ([8]; 62 g ai/ha, scale 0 to 100): 100
- Plant response rating, Pigweed [8, 16]: 100
- Plant response rating, Pigweed ([8]; 250 g ai/ha, scale 0-100): 100
- Plant response rating, Soybean ([9]; 62 g ai/ha, scale 0 to 100): 0
- Plant response rating, Soybean ([9]; 250 g ai/ha, scale 0-100): 70
- Sedge, Umbrella plant response rating ([10]; 62 g ai/ha, scale 0 to 100): 80
- Sedge, Umbrella plant response rating [10, 17]: 80
- Sedge, Umbrella plant response rating [10, 18]: 85
- Plant response rating, Sedge, Umbrella [10, 19]: 90
- Ducksalad plant response rating ([11]; 62 g ai/ha, scale 0 to 100): 75
- Ducksalad plant response rating [11, 17]: 80
- Ducksalad plant response rating [11, 18]: 85
- Plant response rating, Ducksalad [11, 19]: 90
